For this experiment, the target named is T1, Human Recombinant Matriptase 2 (Homo sapiens, UniProt Q8IU80).
T1 construct: purchased Enzo Life Sciences (an in-house preparation was also used) ALX-201-752-1
T1 sequence (Q8IU80 1-811): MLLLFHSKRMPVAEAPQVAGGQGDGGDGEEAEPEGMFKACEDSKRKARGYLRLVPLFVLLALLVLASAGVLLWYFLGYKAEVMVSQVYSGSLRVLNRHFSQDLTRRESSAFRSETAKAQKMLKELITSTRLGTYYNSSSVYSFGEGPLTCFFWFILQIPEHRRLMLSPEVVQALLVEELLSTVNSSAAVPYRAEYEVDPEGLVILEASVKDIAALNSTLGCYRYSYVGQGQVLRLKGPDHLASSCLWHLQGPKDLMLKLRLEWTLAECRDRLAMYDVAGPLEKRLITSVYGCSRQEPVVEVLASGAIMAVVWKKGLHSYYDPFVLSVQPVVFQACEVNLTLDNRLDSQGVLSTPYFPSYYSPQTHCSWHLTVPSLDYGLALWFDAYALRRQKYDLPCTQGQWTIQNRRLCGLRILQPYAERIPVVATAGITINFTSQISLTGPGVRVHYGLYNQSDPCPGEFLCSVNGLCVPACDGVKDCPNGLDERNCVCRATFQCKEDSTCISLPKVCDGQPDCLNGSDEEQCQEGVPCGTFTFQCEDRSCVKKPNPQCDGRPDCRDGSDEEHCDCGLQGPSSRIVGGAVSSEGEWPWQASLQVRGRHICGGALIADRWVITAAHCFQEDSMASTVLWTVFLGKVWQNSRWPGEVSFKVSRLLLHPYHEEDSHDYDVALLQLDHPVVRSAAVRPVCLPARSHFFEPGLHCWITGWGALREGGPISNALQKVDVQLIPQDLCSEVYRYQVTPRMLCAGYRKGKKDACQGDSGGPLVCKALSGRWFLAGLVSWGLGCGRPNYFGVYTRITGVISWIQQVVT
In words: Matriptase 2 fluorescence based inhibition assay, Method B (50 mM TRIS pH 7.5, 150 mM NaCl, 0.01% gelatin). It counts as biochemical. Conditions: read-out: Mar-2 % inhibition at 1 uM. The procedure, abridged:
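Commercial (7 nM) or in-house (15 nM) enzyme preincubated 30 min with compound at 25° C, then 100 μM Boc-Gln-Ala-Arg-AMC added; fluorescence (Ex 360/Em 480 nm) read at 60 min. 1% DMSO final. IC50 from variable-slope sigmoidal fit of % inhibition.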

Read-outs that look alike come from different tables or passages of the source.

The inhibition is how much of the control response was suppressed. Take `CCOC(=O)c1cc2ccc(/C(N)=N/C#N)cc2n1Cc1cc(Oc2ncccn2)cc2ccccc12` [Compound I-558, ethyl (Z)-6-(N′-cyanocarbamimidoyl)-1-((3-(pyrimidin-2-yloxy)naphthalen-1-yl)methyl)-1H-indole-2-carboxylate]: under “1 uM compound, Assay Used = B”, the inhibition at 1 µM fell in the range of 0 to 25%.
On to `CCOC(=O)NC(=N)c1ccc2cc(C(=O)OCC)n(Cc3cc(Oc4ncccn4)cc4ccccc34)c2c1` [Compound I-559], for which, under “1 uM compound, Assay Used = B”, the inhibition at 1 µM was 25 to 50%.
On the same count and under the same terms, in the case of `COC(=O)NC(=N)c1ccc2cc(C(=O)O)n(Cc3cc(Oc4ncccn4)cc4ccccc34)c2c1` [Compound I-561] it was 25 to 50%; in that of `CN1CCC(COC(=O)c2cc3ccc(C(=N)N)cc3n2Cc2cc(Oc3ncccn3)cc3ccccc23)CC1` [Compound I-562], 50 to 75%.
The same measure, in the same setting: in the case of `N=C(N)c1ccc2cc(C(=O)O)n(Cc3cc(OCc4ncccn4)cc4ccccc34)c2c1` [Compound I-563] it was 50 to 75%.
On the same count and under the same terms, the value for `COC(=O)NCCNC(=O)c1cc2ccc(C(=N)N)cc2n1Cc1cc(Oc2ncccn2)cc2ccccc12` [Compound I-564] was 75 to 100%; that for `N=C(N)c1ccc2cc(C(=O)OCCO)n(Cc3cc(Oc4ncccn4)cc4ccccc34)c2c1` [Compound I-565] was 75 to 100%; that for `Cc1ccnc(Oc2cc(Cn3c(C(=O)O)cc4ccc(C(=N)N)cc43)c3ccccc3c2)n1` [Compound I-566] was 25 to 50%.
On to `N=C(N)c1ccc2cc(C(=O)O)n(Cc3cc(NS(=O)(=O)c4ccccc4)cc4ccccc34)c2c1` [Compound I-567, 6-carbamimidoyl-1-((3-(phenylsulfonamido)naphthalen-1-yl)methyl)-1H-indole-2-carboxylic Acid], for which, where the note is “1 uM compound, Assay Used = B”, the inhibition at 1 µM was in the range of 75 to 100%.
Same read-out and setting: the value for `N=C(N)c1ccc2cc(C(=O)OCCNC(N)=O)n(Cc3cc(Oc4ncccn4)cc4ccccc34)c2c1` [Compound I-568] was 75 to 100%; that for `N=C(N)c1cc(F)c2cc(C(=O)O)n(Cc3cc(Oc4ncccn4)cc4ccccc34)c2c1` [Compound I-569, 6-carbamimidoyl-4-fluoro-1-((3-(pyrimidin-2-yloxy)naphthalen-1-yl)methyl)-1H-indole-2-carboxylic Acid] was 75 to 100%; that for `Cc1cc(C)nc(Oc2cc(Cn3c(C(=O)O)cc4ccc(C(=N)N)cc43)c3ccccc3c2)n1` [Compound I-570] was 25 to 50%.
The same measure, in the same setting: the value for `N=C(N)c1ccc2cc(C(=O)O)n(Cc3cc(Oc4ncc(F)cn4)cc4ccccc34)c2c1` [Compound I-571] was 50 to 75%; that for `N=C(N)c1ccc2cc(C(=O)Nc3nnn[nH]3)n(Cc3cc(Oc4ncccn4)cc4ccccc34)c2c1` [Compound I-572] was 50 to 75%.
Regarding `N=C(N)c1ccc2cc(C(=O)Nc3ncccn3)n(Cc3cccc4ccccc34)c2c1` [Compound I-573, 6-carbamimidoyl-1-(naphthalen-1-ylmethyl)-N-(pyrimidin-2-yl)-1H-indole-2-carboxamide], the inhibition at 1 µM (1 uM compound, Assay Used = B) is 50 to 75%.
For the molecule `COc1ccnc(Oc2cc(Cn3c(C(=O)O)cc4ccc(C(=N)N)cc43)c3ccccc3c2)n1` [Compound I-574], the inhibition at 1 µM (1 uM compound, Assay Used = B) fell in the range of 25 to 50%.
For the molecule `CN(C)C(=O)Sc1cc(Cn2c(C(=O)O)cc3ccc(C(=N)N)cc32)c2ccccc2c1` [Compound I-575], where the note is “1 uM compound, Assay Used = B”, the inhibition at 1 µM was 0 to 25%.
`N=C(NC(=O)Oc1ccccc1)c1ccc2cc(C(=O)OCc3ccccc3)n(Cc3cc(Oc4ncccn4)cc4ccccc34)c2c1` [Compound I-576]: the inhibition at 1 µM lay in the range of 0 to 25%.
`N=C(N)c1ccc2c(F)c(C(=O)O)n(Cc3cccc4ccccc34)c2c1` [Compound I-577, 6-carbamimidoyl-3-fluoro-1-(naphthalen-1-ylmethyl)-1H-indole-2-carboxylic Acid]: the inhibition at 1 µM (1 uM compound, Assay Used = B) lay within 50 to 75%.
On to `CNC(=O)c1cc2ccc(C(=N)N)cc2n1Cc1cc(Oc2ncccn2)cc2ccccc12` [Compound I-578], for which the inhibition at 1 µM (1 uM compound, Assay Used = B) lay within 75 to 100%.
With `CCOC(=O)c1cc2ccc(C(=N)NC(=O)Oc3ccccc3)cc2n1Cc1cc(Oc2ccsc2)cc2ccccc12` [Compound I-579], the inhibition at 1 µM fell in the range of 0 to 25%.
In the case of `CC(N)c1ccc2cc(C(=O)N[C@H]3CC[C@H](N)CC3)n(Cc3cccc4ccccc34)c2c1` (stereo partly drawn) [Compound I-580, N-((1r,4r)-4-aminocyclohexyl)-6-(1-aminoethyl)-1-(naphthalen-1-ylmethyl)-1H-indole-2-carboxamide], the inhibition at 1 µM (1 uM compound, Assay Used = B) fell in the range of 0 to 25%.
The same measure, in the same setting: in the case of `CC(C)COC(=O)NC(=N)c1ccc2cc(C(=O)OCc3ccccc3)n(Cc3cc(Oc4ncccn4)cc4ccccc34)c2c1` [Compound I-581] it was 25 to 50%; in that of `N=C(N)c1ccc2cc(C(=O)NCCO)n(Cc3cc(Oc4ncccn4)cc4ccccc34)c2c1` [Compound I-582], 75 to 100%.
On the same count and under the same terms, the value for `COC(=O)NCCOC(=O)c1cc2ccc(C(=N)N)cc2n1Cc1cc(Oc2ncccn2)cc2ccccc12` [Compound I-583] was 75 to 100%; that for `Cn1nc(C(F)(F)F)c(C=O)c1Oc1cc(Cn2c(C(=O)O)cc3ccc(C(=N)N)cc32)c2ccccc2c1` [Compound I-584] was 0 to 25%; that for `N=C(N)c1ccc2cc(C(=O)O)n(Cc3cc(S(=O)(=O)Nc4ccccc4)cc4ccccc34)c2c1` [Compound I-585] was 50 to 75%.
The same measure, in the same setting: the value for `CCOC(=O)c1cc2ccc(C(=N)NC(=O)OCC(C)C)cc2n1Cc1cc(Oc2ccsc2)cc2ccccc12` [Compound I-586] was 25 to 50%; that for `COC(=O)NCCNC(=O)c1cc2ccc(C(=N)N)cc2n1Cc1cccc2ccccc12` [Compound I-587] was 75 to 100%.
Consider `N=C(N)c1ccc2[nH]c(C(=O)O)c(Cc3cc(Oc4ccccc4)cc4ccccc34)c2c1` [Compound I-588], for which, under “1 uM compound, Assay Used = B”, the inhibition at 1 µM lay within 25 to 50%.
Same read-out and setting: in the case of `N=C(N)c1ccc2cc(C(=O)O)n(Cc3cc(Oc4nccs4)cc4ccccc34)c2c1` [Compound I-589] it was 75 to 100%; in that of `CN1CCC(CNC(=O)c2cc3ccc(C(=N)N)cc3n2Cc2cc(Oc3ncccn3)cc3ccccc23)CC1` [Compound I-590], 75 to 100%; in that of `Cc1c(C(=O)N[C@H]2CC[C@H](N)CC2)n(Cc2cc(Oc3ncccn3)cc3ccccc23)c2cc(C(=N)N)ccc12` [Compound I-591], 75 to 100%.
On the same count and under the same terms, in the case of `CCOC(=O)c1cc2ccc(C(=N)N)cc2n1Cc1cc(Oc2ccsc2)cc2ccccc12` [Compound I-592] it was 0 to 25%; in that of `N=C(N)c1ccc2cc(C(=O)NC3CCNCC3F)n(Cc3cccc4ccccc34)c2c1` (stereo not drawn) [Compound I-593], 75 to 100%.
The same measure, in the same setting: in the case of `CN1CCC(NC(=O)c2cc3ccc(C(=N)N)cc3n2Cc2cc(Oc3ncccn3)cc3ccccc23)CC1` [Compound I-594] it was 75 to 100%; in that of `CC(C)COC(=O)NC(=N)c1ccc2cc(C(=O)O)n(Cc3cc(Oc4ncccn4)cc4ccccc34)c2c1` [Compound I-595], 25 to 50%.
On to `N=C(N)c1ccc2cc(C(=O)OCc3ccccc3)n(Cc3cc(Oc4ncccn4)cc4ccccc34)c2c1` [Compound I-596], for which the inhibition at 1 µM (1 uM compound, Assay Used = B) lay in the range of 25 to 50%.
Regarding `N=C(N)c1ccc2cc(C(=O)OCCNC(N)=O)n(Cc3cccc4ccccc34)c2c1` [Compound I-597], where the note is “1 uM compound, Assay Used = B (Method B)”, the inhibition at 1 µM was in the range of 75 to 100%.

(Values after patent US12428415B2, “Matriptase 2 inhibitors and uses thereof” (Disc Medicine, Inc., priority 2018, dated 2025).)
